Test results taken from ChEMBL document CHEMBL1126847, “Deoxygenated inositol 1,4,5-trisphosphate analogues and their interaction with metabolic enzymes. (1R,2R,4R)-cyclohexane-1,2,4-tris(methylenesulfonate): a potent selective 5-phosphatase inhibitor” (J Med Chem, 1993).

Columns and labels:
[1] = molecular target: T1, Inositol polyphosphate-5-phosphatase A (Homo sapiens, UniProt Q14642); test: Tested for inhibition of 5-phosphatase isolated from human erythrocyte membrane (S substrate)
T1 sequence (Q14642 whole entry): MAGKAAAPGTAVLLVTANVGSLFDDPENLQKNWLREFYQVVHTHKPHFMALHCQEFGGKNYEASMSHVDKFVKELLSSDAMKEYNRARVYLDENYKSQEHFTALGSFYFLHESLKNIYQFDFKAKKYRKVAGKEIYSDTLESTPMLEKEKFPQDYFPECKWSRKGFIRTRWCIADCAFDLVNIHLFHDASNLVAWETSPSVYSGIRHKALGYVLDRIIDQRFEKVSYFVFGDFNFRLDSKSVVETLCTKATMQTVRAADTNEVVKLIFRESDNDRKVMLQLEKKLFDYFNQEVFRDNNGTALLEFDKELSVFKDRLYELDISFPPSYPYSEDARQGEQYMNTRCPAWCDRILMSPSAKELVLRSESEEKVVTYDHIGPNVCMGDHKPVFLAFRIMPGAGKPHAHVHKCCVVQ

[2] = Tested for the ability to displace [3H]1,4,5-IP3 from the 1,4,5-IP3 specific binding site of membranes from the bovine adrenal cortices
[3] = Tested for [Ca2+] release in 45 [Ca2+] -preloaded SH-SY5Y cells using saponin; assay type: functional, cell-based; details: Homo sapiens
[4] = Inhibition of Inositol 1,4,5-trisphosphate 3-kinase from rat brain homogenate (r metabolically resistant)
[5] = (§1) Inhibition of Inositol 1,4,5-trisphosphate 3-kinase from rat brain homogenate (R metabolically resistant); assay type: tissue-based
[6] = molecular target: T1, Inositol polyphosphate-5-phosphatase A; test: Tested for inhibition of 5-phosphatase isolated from human erythrocyte membrane (R metabolically resistant)
[7] = Inhibition of Inositol 1,4,5-trisphosphate 3-kinase from rat brain homogenate (r-metabolically resistant)
[8] = molecular target: T1, Inositol polyphosphate-5-phosphatase A; test: Tested for inhibition of 5-phosphatase isolated from human erythrocyte membrane
[9] = as §1
[10] = Inhibition of Inositol 1,4,5-trisphosphate 3-kinase from rat brain homogenate (S substrate)

| Compound | Ki [1] [µM] | Ki [2] [µM] | EC50 [3] [µM] | Ki [4] [µM] | Ki [5] [µM] | Ki [6] [µM] | Ki [7] [µM] | Ki [8] [µM] | Ki [9] [µM] | Ki [10] [nM] |
| --- | --- | --- | --- | --- | --- | --- | --- | --- | --- | --- |
| O=P(O)(O)OC1CCC(OP(=O)(O)O)[C@H](OP(=O)(O)O)[C@@H]1O (stereo partly specified) | 16.5 | 0.0396 | 0.186 | 19 | – | – | – | – | – | – |
| O=P(O)(O)Cc1ccc(CP(=O)(O)O)c(CP(=O)(O)O)c1 | – | > 100 | > 100 | – | > 200 | 148 | – | – | – | – |
| O=P(O)(O)OCC1CCC(COP(=O)(O)O)[C@H](COP(=O)(O)O)C1 (stereo partly specified) | – | > 100 | > 100 | – | > 600 | 144 | – | – | – | – |
| O=S(=O)(O)CC1CC[C@H](CS(=O)(=O)O)C[C@H]1CS(=O)(=O)O (stereo partly specified) | – | > 100 | > 100 | – | – | > 1000 | – | – | > 600 | – |
| O=P(O)(O)O[C@@H]1[C@H](O)[C@H](O)[C@@H](OP(=O)(O)O)[C@H](OP(=O)(O)O)[C@H]1O [INS(1,4,5)P3] | 15 | 0.0022 | 0.0521 | – | – | – | – | – | – | 850 |

Next, values leading:

| Ki [1] [µM] | Ki [2] [µM] | EC50 [3] [µM] | Ki [4] [µM] | Ki [5] [µM] | Ki [6] [µM] | Ki [7] [µM] | Ki [8] [µM] | Ki [9] [µM] | Ki [10] [nM] | Compound |
| --- | --- | --- | --- | --- | --- | --- | --- | --- | --- | --- |
| 11.5 | 0.0234 | 0.156 | 25 | – | – | – | – | – | – | O=P(O)(O)OC1[C@H](O)CC(OP(=O)(O)O)[C@H](OP(=O)(O)O)[C@@H]1O (stereo partly specified) |
| 81.4 | 3.95 | > 10 | – | – | – | 36 | – | – | – | O=P(O)(O)OC1CCC(OP(=O)(O)O)[C@H](OP(=O)(O)O)C1 (stereo partly specified) |
| – | > 100 | > 100 | – | > 600 | 535 | – | – | – | – | O=P(O)(O)CC1CCC(CP(=O)(O)O)[C@H](CP(=O)(O)O)C1 (stereo partly specified) |
| – | > 100 | > 100 | – | > 600 | – | – | 3.9 | – | – | O=S(=O)(O)CC1CC[C@@H](CS(=O)(=O)O)C[C@H]1CS(=O)(=O)O (stereo partly specified) |
